How the values were obtained:
[1] = system: Abutilon theophrasti; assay: Herbicidal activity against Abutilon theophrasti (velvetleaf) in plastic pot assessed as killing at 500 g/ha under greenhouse for 20 days by preemergence herbicidal activity tests; format: functional
[2] = system: Echinochloa frumentacea; assay: Herbicidal activity against Echinochloa frumentacea (Japanese millet) in plastic pot assessed as killing at 500 g/ha under greenhouse for 20 days by preemergence herbicidal activity tests; format: functional
[3] = system: Ipomoea nil; assay: Herbicidal activity against Ipomoea nil (Japanese morning glory) in plastic pot assessed as killing at 500 g/ha under greenhouse for 20 days by pre-emergence herbicidal activity tests; format: functional
[4] = system: Abutilon theophrasti; assay: Herbicidal activity against Abutilon theophrasti (velvetleaf) in field soil at 125 g/ha measured after 3 days by preemergence herbicidal activity tests; format: functional
[5] = system: Sorghum halepense; assay: Herbicidal activity against Sorghum halepense (Johnson grass) in field soil at 125 g/ha measured after 3 days by preemergence herbicidal activity tests; format: functional
[6] = system: Eleusine indica; assay: Herbicidal activity against Eleusine indica in field soil at 62.5 g/ha measured after 3 days by preemergence herbicidal activity tests; format: functional
[7] = system: Ipomoea nil; assay: Herbicidal activity against Ipomoea nil (Japanese morning glory) in field soil at 62.5 g/ha measured after 3 days by pre-emergence herbicidal activity tests; format: functional
[8] = system: Abutilon theophrasti; assay: Herbicidal activity against Abutilon theophrasti (velvetleaf) in field soil at 62.5 g/ha measured after 3 days by preemergence herbicidal activity tests; format: functional
[9] = system: Echinochloa crus-galli; assay: Herbicidal activity against Echinochloa crus-galli (barnyard grass) in field soil at 125 g/ha measured after 3 days by preemergence herbicidal activity tests; format: functional
[10] = system: Portulaca oleracea; assay: Herbicidal activity against Portulaca oleracea in field soil at 125 g/ha measured after 3 days by preemergence herbicidal activity tests; format: functional
[11] = system: Sida spinosa; assay: Herbicidal activity against Sida spinosa in field soil at 62.5 g/ha measured after 3 days by preemergence herbicidal activity tests; format: functional
[12] = system: Sorghum halepense; assay: Herbicidal activity against Sorghum halepense (Johnson grass) in field soil at 62.5 g/ha measured after 3 days by preemergence herbicidal activity tests; format: functional
[13] = system: Eleusine indica; assay: Herbicidal activity against Eleusine indica in field soil at 125 g/ha measured after 3 days by preemergence herbicidal activity tests; format: functional
[14] = system: Portulaca oleracea; assay: Herbicidal activity against Portulaca oleracea in field soil at 62.5 g/ha measured after 3 days by preemergence herbicidal activity tests; format: functional
[15] = system: Gossypium hirsutum; assay: Phytotoxicity against Gossypium hirsutum (cotton) at 125 g/ha by selectivity assay; format: organism-based; conditions: in vivo
[16] = system: Ipomoea nil; assay: Herbicidal activity against Ipomoea nil (Japanese morning glory) in field soil at 125 g/ha measured after 3 days by pre-emergence herbicidal activity tests; format: functional
[17] = system: Echinochloa crus-galli; assay: Herbicidal activity against Echinochloa crus-galli (barnyard grass) in field soil at 62.5 g/ha measured after 3 days by preemergence herbicidal activity tests; format: functional
[18] = system: Amaranthus viridis; assay: Herbicidal activity against Amaranthus viridis in field soil at 125 g/ha measured after 3 days by pre-emergence herbicidal activity tests; format: functional
[19] = system: Sida spinosa; assay: Herbicidal activity against Sida spinosa in field soil at 125 g/ha measured after 3 days by preemergence herbicidal activity tests; format: functional
[20] = system: Amaranthus viridis; assay: Herbicidal activity against Amaranthus viridis in field soil at 62.5 g/ha measured after 3 days by pre-emergence herbicidal activity tests; format: functional
[21] = system: Gossypium hirsutum; assay: Phytotoxicity against Gossypium hirsutum (cotton) at 62.5 g/ha by selectivity assay; format: organism-based; conditions: in vivo

SMILES | Activity [1] [%] | Activity [2] [%] | Activity [3] [%] | further results
CCOC(=O)/N=c1/sc(Br)c(Br)n1-c1cccc(C(F)(F)F)c1 | 0 | 20 | 40 | –
Cc1cn(-c2cccc(C(F)(F)F)c2)/c(=N/C#N)s1 | 60 | 90 | 50 | –
CCOC(=O)/N=c1/sc(C)cn1-c1cccc(C(F)(F)F)c1 | 90 | 90 | 90 | –
CCOC(=O)/N=c1/sc(C#N)cn1-c1cccc(C(F)(F)F)c1 | 0 | 20 | 0 | –
CCOC(=O)/N=c1/sc(I)cn1-c1cccc(C(F)(F)F)c1 | 60 | 80 | 90 | –
CSC(=S)/N=c1/sc(C)cn1-c1cccc(C(F)(F)F)c1 | 30 | 50 | 40 | –
Cc1cn(-c2cccc(C(F)(F)F)c2)/c(=N/C(=O)C(C)(C)C)s1 | 40 | 50 | 60 | –
Cc1cn(-c2cccc(C(F)(F)F)c2)/c(=N/C(=O)CCl)s1 | 0 | 20 | 0 | –
CCOC(=O)/N=c1/scc(Cl)n1-c1cccc(C(F)(F)F)c1 | 0 | 0 | 0 | –
CCNC(=O)/N=c1/sc(C)cn1-c1cccc(C(F)(F)F)c1 | 40 | 80 | 40 | –
CCOC(=O)/N=c1/scc(C)n1-c1cccc(C(F)(F)F)c1 | 0 | 0 | 0 | –
CCOC(=O)/N=c1/sc(C(C)C)cn1-c1cccc(C(F)(F)F)c1 | 0 | 0 | 10 | –
CCNC(=S)/N=c1/sc(C)cn1-c1cccc(C(F)(F)F)c1 | 0 | 20 | 0 | –
Cc1cn(-c2cccc(C(F)(F)F)c2)/c(=N/C(=O)C(F)F)s1 | 100 | 100 | 100 | Activity [4]: 100%; Activity [5]: 90%; Activity [6]: 90%; Activity [7]: 100%; Activity [8]: 100%; Activity [9]: 100%; Activity [10]: 100%; Activity [11]: 100%; Activity [12]: 90%; Activity [13]: 90%; Activity [14]: 100%; Activity [15]: 0%; Activity [16]: 100%; Activity [17]: 90%; Activity [18]: 100%; Activity [19]: 100%; Activity [20]: 100%; Activity [21]: 0%
Cc1cn(-c2cccc(C(F)(F)F)c2)/c(=N/C(=O)C(C)C)s1 | 60 | 70 | 40 | –
CCOC(=O)/N=c1/sc(Cl)cn1-c1cccc(C(F)(F)F)c1 | 70 | 90 | 60 | –
Cc1cn(-c2cccc(C(F)(F)F)c2)/c(=N/C(=O)C2CC2)s1 | 40 | 90 | 60 | –
Cc1cn(-c2cccc(C(F)(F)F)c2)/c(=N\S(C)(=O)=O)s1 | 80 | 90 | 80 | –
CCCC(=O)/N=c1\sc(C)cn1-c1cccc(C(F)(F)F)c1 | 20 | 40 | 40 | –
CCOC(=O)/N=c1/sc2c(n1-c1cccc(C(F)(F)F)c1)CCCC2 | 0 | 0 | 0 | –

SMILES | Activity [1] [%] | Activity [2] [%] | Activity [3] [%] | further results
CCOC(=O)/N=c1/sc(Br)cn1-c1cccc(C(F)(F)F)c1 | 100 | 90 | 60 | –
CCOC(=O)/N=c1/sccn1-c1cccc(C(F)(F)F)c1 | 20 | 50 | 20 | –
CCOC(=O)/N=c1/scc(N)n1-c1cccc(C(F)(F)F)c1 | 0 | 30 | 10 | –
CCOC(=O)/N=c1/sc2c(n1-c1cccc(C(F)(F)F)c1)CCC2 | 0 | 0 | 0 | –
CCCc1cn(-c2cccc(C(F)(F)F)c2)/c(=N\C(=O)OCC)s1 | 0 | 60 | 40 | –
Cc1cn(-c2cccc(C(F)(F)F)c2)/c(=N\C(=O)Nc2ccccc2)s1 | 60 | 60 | 40 | –
CCOC(=O)/N=c1/sc(C)c(Br)n1-c1cccc(C(F)(F)F)c1 | 0 | 20 | 40 | –
Cc1cn(-c2cccc(C(F)(F)F)c2)c(=N)s1 | 0 | 40 | 0 | –
CCC(=O)/N=c1\sc(C)cn1-c1cccc(C(F)(F)F)c1 | 50 | 70 | 60 | –
Cc1cn(-c2cccc(C(F)(F)F)c2)/c(=N/c2ccc(Cl)cc2)s1 | 0 | 0 | 0 | –
CCOC(=O)/N=c1/sc(SC)cn1-c1cccc(C(F)(F)F)c1 | 40 | 70 | 50 | –
CC(=O)/N=c1/sc(C)cn1-c1cccc(C(F)(F)F)c1 | 90 | 100 | 100 | –
CCOC(=O)/N=c1/sc(CC)cn1-c1cccc(C(F)(F)F)c1 | 70 | 70 | 70 | –
CC(=S)/N=c1/sc(C)cn1-c1cccc(C(F)(F)F)c1 | 0 | 10 | 0 | –
Cc1cn(-c2cccc(C(F)(F)F)c2)/c(=N/C(=O)C(F)(F)C(F)(F)F)s1 | 80 | 80 | 70 | –
Cc1cn(-c2cccc(C(F)(F)F)c2)/c(=N\C(=O)N(C)C)s1 | 30 | 70 | 20 | –
Cc1cn(-c2cccc(C(F)(F)F)c2)/c(=N/C(=O)C(F)(F)F)s1 | 100 | 100 | 100 | Activity [4]: 100%; Activity [5]: 90%; Activity [6]: 80%; Activity [7]: 80%; Activity [8]: 90%; Activity [9]: 100%; Activity [10]: 90%; Activity [11]: 90%; Activity [12]: 70%; Activity [13]: 90%; Activity [14]: 90%; Activity [15]: 30%; Activity [16]: 100%; Activity [17]: 80%; Activity [18]: 100%; Activity [19]: 100%; Activity [20]: 90%; Activity [21]: 10%
Cc1cn(-c2cccc(C(F)(F)F)c2)/c(=N/C(=O)CF)s1 | 70 | 90 | 90 | –
Cc1cn(-c2cccc(C(F)(F)F)c2)/c(=N/C(=O)C(Cl)Cl)s1 | 0 | 30 | 0 | –
C/N=c1/sc(C)cn1-c1cccc(C(F)(F)F)c1 | 0 | 0 | 0 | –
